± gives the expanded uncertainty stated by the source.
Test: molar heat capacity at constant pressure; mn = molality of the nth substance listed, in mol/kg
Details: 101 kPa, Liquid, Large sample (1 g) DSC

CCCCCC[N+](C)(C)C.[Br-] [hexyltrimethylammonium bromide] + O
molar heat capacity at constant pressure [J/K/mol]
Details | 298.15 K | 303.15 K | 308.15 K | 313.15 K
m1 = 0.01002 | 75.42 ± 1.3 | 75.39 ± 1.3 | 75.38 ± 1.3 | 75.39 ± 1.3
m1 = 0.02406 | 75.57 ± 1.3 | 75.55 ± 1.3 | 75.54 ± 1.3 | 75.55 ± 1.3
m1 = 0.03 | 75.65 ± 1.3 | 75.62 ± 1.3 | 75.61 ± 1.3 | 75.63 ± 1.3
m1 = 0.03989 | 75.72 ± 1.3 | 75.7 ± 1.3 | 75.69 ± 1.3 | 75.69 ± 1.3
m1 = 0.045 | 75.7 ± 1.3 | 75.68 ± 1.3 | 75.67 ± 1.3 | 75.7 ± 1.3
m1 = 0.04985 | 75.78 ± 1.3 | 75.76 ± 1.3 | 75.75 ± 1.3 | 75.76 ± 1.3
m1 = 0.05497 | 75.82 ± 1.3 | 75.79 ± 1.3 | 75.78 ± 1.3 | 75.8 ± 1.3
m1 = 0.05996 | 75.89 ± 1.3 | 75.86 ± 1.3 | 75.86 ± 1.3 | 75.87 ± 1.3
m1 = 0.07507 | 75.97 ± 1.3 | 75.95 ± 1.3 | 75.94 ± 1.3 | 75.95 ± 1.3
m1 = 0.07976 | 76.04 ± 1.3 | 76.02 ± 1.3 | 76.02 ± 1.3 | 76.02 ± 1.3
m1 = 0.09 | 76.13 ± 1.3 | 76.11 ± 1.3 | 76.11 ± 1.3 | 76.12 ± 1.3
m1 = 0.09694 | 76.14 ± 1.3 | 76.12 ± 1.3 | 76.11 ± 1.3 | 76.13 ± 1.3
m1 = 0.11 | 76.31 ± 1.3 | 76.29 ± 1.3 | 76.28 ± 1.3 | 76.3 ± 1.3
m1 = 0.1199 | 76.37 ± 1.3 | 76.35 ± 1.3 | 76.35 ± 1.3 | 76.36 ± 1.3
m1 = 0.1251 | 76.39 ± 1.3 | 76.36 ± 1.3 | 76.36 ± 1.3 | 76.38 ± 1.3
m1 = 0.1301 | 76.52 ± 1.3 | 76.51 ± 1.3 | 76.51 ± 1.3 | 76.52 ± 1.3
m1 = 0.14 | 76.58 ± 1.3 | 76.56 ± 1.3 | 76.55 ± 1.3 | 76.57 ± 1.3
m1 = 0.1502 | 76.59 ± 1.3 | 76.57 ± 1.3 | 76.57 ± 1.3 | 76.58 ± 1.3
m1 = 0.1751 | 76.79 ± 1.3 | 76.78 ± 1.3 | 76.77 ± 1.3 | 76.78 ± 1.3
m1 = 0.1993 | 77 ± 1.3 | 76.98 ± 1.3 | 76.98 ± 1.3 | 77 ± 1.3
m1 = 0.2248 | 77.21 ± 1.3 | 77.19 ± 1.3 | 77.19 ± 1.3 | 77.21 ± 1.3
m1 = 0.2507 | 77.41 ± 1.3 | 77.4 ± 1.3 | 77.41 ± 1.3 | 77.43 ± 1.3
m1 = 0.2757 | 77.59 ± 1.3 | 77.58 ± 1.3 | 77.59 ± 1.3 | 77.61 ± 1.3
m1 = 0.2801 | 77.65 ± 1.3 | 77.64 ± 1.3 | 77.66 ± 1.3 | 77.71 ± 1.3
m1 = 0.2851 | 77.71 ± 1.3 | 77.7 ± 1.3 | 77.69 ± 1.3 | 77.71 ± 1.3
m1 = 0.2996 | 77.82 ± 1.3 | 77.8 ± 1.3 | 77.8 ± 1.3 | 77.83 ± 1.3
m1 = 0.3222 | 78.01 ± 1.4 | 78 ± 1.4 | 78.01 ± 1.4 | 78.06 ± 1.4
m1 = 0.3311 | 78.06 ± 1.4 | 78.05 ± 1.4 | 78.06 ± 1.4 | 78.09 ± 1.4
m1 = 0.3512 | 78.21 ± 1.4 | 78.21 ± 1.4 | 78.21 ± 1.4 | 78.23 ± 1.4
m1 = 0.4002 | 78.59 ± 1.4 | 78.59 ± 1.4 | 78.6 ± 1.4 | 78.64 ± 1.4
m1 = 0.4258 | 78.85 ± 1.4 | 78.84 ± 1.4 | 78.84 ± 1.4 | 78.86 ± 1.4
m1 = 0.4503 | 79 ± 1.4 | 78.99 ± 1.4 | 79 ± 1.4 | 79.02 ± 1.4
m1 = 0.4998 | 79.37 ± 1.4 | 79.37 ± 1.4 | 79.38 ± 1.4 | 79.41 ± 1.4
m1 = 0.5263 | 79.58 ± 1.4 | 79.57 ± 1.4 | 79.58 ± 1.4 | 79.61 ± 1.4
m1 = 0.5513 | 79.72 ± 1.4 | 79.73 ± 1.4 | 79.75 ± 1.4 | 79.77 ± 1.4
m1 = 0.5742 | 79.94 ± 1.4 | 79.95 ± 1.4 | 79.96 ± 1.4 | 79.98 ± 1.4
m1 = 0.6007 | 80.15 ± 1.4 | 80.16 ± 1.4 | 80.18 ± 1.4 | 80.22 ± 1.4
m1 = 0.6516 | 80.55 ± 1.4 | 80.56 ± 1.4 | 80.57 ± 1.4 | 80.59 ± 1.4
m1 = 0.701 | 80.9 ± 1.4 | 80.91 ± 1.4 | 80.92 ± 1.4 | 80.95 ± 1.4
m1 = 0.7517 | 81.28 ± 1.4 | 81.29 ± 1.4 | 81.31 ± 1.4 | 81.33 ± 1.4
m1 = 0.8016 | 81.66 ± 1.4 | 81.67 ± 1.4 | 81.68 ± 1.4 | 81.71 ± 1.4
m1 = 0.8842 | 82.28 ± 1.4 | 82.29 ± 1.4 | 82.31 ± 1.4 | 82.33 ± 1.4
m1 = 0.9496 | 82.77 ± 1.4 | 82.78 ± 1.4 | 82.79 ± 1.4 | 82.81 ± 1.4
m1 = 0.9915 | 83.01 ± 1.4 | 83.02 ± 1.4 | 83.05 ± 1.4 | 83.08 ± 1.4

CCCCCCCC[N+](C)(C)C.[Br-] [octyl trimethyl ammonium bromide] + O
molar heat capacity at constant pressure [J/K/mol]
Details | 298.15 K | 303.15 K | 308.15 K | 313.15 K
m1 = 0.00997 | 75.46 ± 1.3 | 75.44 ± 1.3 | 75.44 ± 1.3 | 75.45 ± 1.3
m1 = 0.01501 | 75.58 ± 1.3 | 75.55 ± 1.3 | 75.54 ± 1.3 | 75.55 ± 1.3
m1 = 0.025 | 75.69 ± 1.3 | 75.66 ± 1.3 | 75.65 ± 1.3 | 75.66 ± 1.3
m1 = 0.04 | 75.85 ± 1.3 | 75.83 ± 1.3 | 75.82 ± 1.3 | 75.83 ± 1.3
m1 = 0.05 | 75.95 ± 1.3 | 75.93 ± 1.3 | 75.92 ± 1.3 | 75.93 ± 1.3
m1 = 0.07502 | 76.27 ± 1.3 | 76.24 ± 1.3 | 76.23 ± 1.3 | 76.25 ± 1.3
m1 = 0.08 | 76.32 ± 1.3 | 76.29 ± 1.3 | 76.29 ± 1.3 | 76.3 ± 1.3
m1 = 0.08509 | 76.4 ± 1.3 | 76.38 ± 1.3 | 76.36 ± 1.3 | 76.36 ± 1.3
m1 = 0.09999 | 76.54 ± 1.3 | 76.51 ± 1.3 | 76.5 ± 1.3 | 76.51 ± 1.3
m1 = 0.1202 | 76.79 ± 1.3 | 76.74 ± 1.3 | 76.74 ± 1.3 | 76.77 ± 1.3
m1 = 0.125 | 76.85 ± 1.3 | 76.82 ± 1.3 | 76.81 ± 1.3 | 76.81 ± 1.3
m1 = 0.1397 | 76.98 ± 1.3 | 76.95 ± 1.3 | 76.93 ± 1.3 | 76.93 ± 1.3
m1 = 0.15 | 77.1 ± 1.3 | 77.08 ± 1.3 | 77.07 ± 1.3 | 77.08 ± 1.3
m1 = 0.16 | 77.21 ± 1.3 | 77.19 ± 1.3 | 77.17 ± 1.3 | 77.15 ± 1.3
m1 = 0.175 | 77.41 ± 1.3 | 77.38 ± 1.3 | 77.37 ± 1.3 | 77.37 ± 1.3
m1 = 0.1799 | 77.47 ± 1.3 | 77.44 ± 1.3 | 77.43 ± 1.3 | 77.42 ± 1.3
m1 = 0.1898 | 77.59 ± 1.3 | 77.55 ± 1.3 | 77.54 ± 1.3 | 77.53 ± 1.3
m1 = 0.2 | 77.66 ± 1.3 | 77.63 ± 1.3 | 77.61 ± 1.3 | 77.61 ± 1.3
m1 = 0.2197 | 77.9 ± 1.3 | 77.87 ± 1.3 | 77.85 ± 1.3 | 77.83 ± 1.3
m1 = 0.24 | 78.15 ± 1.4 | 78.11 ± 1.4 | 78.09 ± 1.4 | 78.08 ± 1.4
m1 = 0.25 | 78.24 ± 1.4 | 78.2 ± 1.4 | 78.18 ± 1.4 | 78.17 ± 1.4
m1 = 0.2601 | 78.37 ± 1.4 | 78.32 ± 1.4 | 78.29 ± 1.4 | 78.28 ± 1.4
m1 = 0.2751 | 78.52 ± 1.4 | 78.47 ± 1.4 | 78.44 ± 1.4 | 78.42 ± 1.4
m1 = 0.2801 | 78.66 ± 1.4 | 78.63 ± 1.4 | 78.59 ± 1.4 | 78.56 ± 1.4
m1 = 0.2999 | 78.81 ± 1.4 | 78.74 ± 1.4 | 78.69 ± 1.4 | 78.67 ± 1.4
m1 = 0.3251 | 79.06 ± 1.4 | 78.99 ± 1.4 | 78.94 ± 1.4 | 78.91 ± 1.4
m1 = 0.3497 | 79.28 ± 1.4 | 79.2 ± 1.4 | 79.15 ± 1.4 | 79.13 ± 1.4
m1 = 0.3749 | 79.51 ± 1.4 | 79.43 ± 1.4 | 79.39 ± 1.4 | 79.37 ± 1.4
m1 = 0.4 | 79.68 ± 1.4 | 79.61 ± 1.4 | 79.57 ± 1.4 | 79.56 ± 1.4
m1 = 0.4248 | 79.91 ± 1.4 | 79.85 ± 1.4 | 79.83 ± 1.4 | 79.83 ± 1.4
m1 = 0.4742 | 80.26 ± 1.4 | 80.22 ± 1.4 | 80.2 ± 1.4 | 80.2 ± 1.4
m1 = 0.5499 | 80.8 ± 1.4 | 80.74 ± 1.4 | 80.73 ± 1.4 | 80.77 ± 1.4
m1 = 0.6251 | 81.38 ± 1.4 | 81.36 ± 1.4 | 81.37 ± 1.4 | 81.41 ± 1.4
m1 = 0.7072 | 81.85 ± 1.4 | 81.84 ± 1.4 | 81.87 ± 1.4 | 81.93 ± 1.4
m1 = 1.277 | 85.58 ± 1.5 | 85.68 ± 1.5 | 85.8 ± 1.5 | 85.96 ± 1.5
m1 = 2.09 | 90.58 ± 1.6 | 90.8 ± 1.6 | 91.05 ± 1.6 | 91.33 ± 1.6

— the NIST ThermoML archive (doi:10.1016/j.fluid.2013.08.005)
